Legend:
Type in all cases: biochemical
IDH1 (R132C) = IDH1 (R132C) (Homo sapiens, UniProt O75874, R132C); assay: IDH enzyme assay, NADPH depletion by diaphorase/resazurin coupled detection; settings: pre-incubated with enzyme for 1 h at room temperature; 500 μM a-Ketoglutarate+15 μM NADPH; 10-dose, 3-fold dilution from 10 μM; read-out: Compound IC50 (nM) IDH1 (R132C)
Procedure: (§1) Compounds were tested against 3 enzymes, as provided below. Compounds were tested in 10-dose IC50 mode with 3-fold serial dilution at a starting concentration of 10 μM. Control Compounds were tested in 10-dose IC50 mode with 3-fold serial dilution starting at 1 mM or 10 mM. Assay Format: The production or depletion of NADPH by IDH enzymes was measured by diaphorase/resazurin coupled detection. Fluorescence measurement: Ex/Em=535/590 by EnVision. Compounds were pre-incubated with enzyme for 1 h at room temperature. Standard substrate: 1500 μM a-Ketoglutarate+15 μM NADPH for IDH1 (R132H). 500 μM a-Ketoglutarate+15 μM NADPH for IDH1 (R132C). 65 μM Isocitrate+50 μM NADP for IDH1.

IDH1 (R132H) = IDH1 (R132H) (Homo sapiens, UniProt O75874, R132H); assay: as above; settings: pre-incubated with enzyme for 1 h at room temperature; 1500 μM a-Ketoglutarate+15 μM NADPH; 10-dose, 3-fold dilution from 10 μM; read-out: Compound IC50 (nM) IDH1 (R132H)
IDH1 (R132H), sequence (O75874 whole entry R132H): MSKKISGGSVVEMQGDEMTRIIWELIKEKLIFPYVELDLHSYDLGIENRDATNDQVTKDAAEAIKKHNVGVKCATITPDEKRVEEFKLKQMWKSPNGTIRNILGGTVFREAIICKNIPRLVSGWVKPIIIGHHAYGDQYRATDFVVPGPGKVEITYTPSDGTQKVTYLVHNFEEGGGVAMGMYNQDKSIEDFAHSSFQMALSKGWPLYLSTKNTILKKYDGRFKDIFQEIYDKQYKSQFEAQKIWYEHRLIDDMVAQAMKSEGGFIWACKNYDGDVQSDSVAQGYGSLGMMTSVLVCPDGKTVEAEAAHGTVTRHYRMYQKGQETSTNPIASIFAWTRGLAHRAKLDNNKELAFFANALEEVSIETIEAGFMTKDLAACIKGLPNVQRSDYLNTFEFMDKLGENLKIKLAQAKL
Procedure: as §1

IDH1 = IDH1 (Homo sapiens, UniProt O75874); assay: IDH enzyme assay, NADPH production by diaphorase/resazurin coupled detection; settings: IDH1 WT; pre-incubated with enzyme for 1 h at room temperature; 65 μM Isocitrate+50 μM NADP; 10-dose, 3-fold dilution from 10 μM; read-out: Compound IC50 (nM) IDH1
IDH1, sequence (O75874 whole entry): as the sequence (O75874 whole entry R132H) above, with H132R counted along it
Procedure: as §1

IDH1 (R132C), sequence (O75874 whole entry R132C): as the sequence (O75874 whole entry R132H) above, with H132C counted along it

Row | Structure (SMILES) | IC50 (IDH1 (R132C)) [nM] | IC50 (IDH1 (R132H)) [nM] | IC50 (IDH1) [nM]
1 | C=CC(=O)Nc1cc(Cn2nc(C(=O)Nc3cccc(C)c3)c3c2C(C)CN(C(=O)c2ccc[nH]2)C3)ccc1F (stereo not shown) [ISO-2-1, 1-(3-acrylamido-4-fluorobenzyl)-7-methyl-5-(1H-pyrrole-2-carbonyl)-N-(m-tolyl)-4,5,6,7-tetrahydro-1H-pyrazolo[4,3-c]pyridine-3-carboxamide] | 35 | 18 | > 10000
2 | C=CC(=O)NCc1cc(Cn2nc(C(=O)Nc3cccc(C)c3)c3c2C(C)CN(C(=O)c2ccc[nH]2)C3)ccc1F (stereo not shown) [ISO-2-2, 1-(3-(acrylamidomethyl)-4-fluorobenzyl)-7-methyl-5-(1H-pyrrole-2-carbonyl)-N-(m-tolyl)-4,5,6,7-tetrahydro-1H-pyrazolo[4,3-c]pyridine-3-carboxamide] | 152 | 33 | > 10000
3 | C=CC(=O)Nc1cc(Cn2nc(C(=O)Nc3cccc([C@H](C)O)c3)c3c2C(C)CN(C(=O)c2ccc[nH]2)C3)ccc1F (stereo partly drawn) [ISO-2-3, 1-(3-acrylamido-4-fluorobenzyl)-N-(3-((S)-1-hydroxyethyl)phenyl)-7-methyl-5-(1H-pyrrole-2-carbonyl)-4,5,6,7-tetrahydro-1H-pyrazolo[4,3-c]pyridine-3-carboxamide] | 77 | 34 | ≥ 10000
4 | C=CC(=O)Nc1cccc(NC(=O)c2nn(Cc3ccc(F)cc3)c3c2CN(C(=O)c2ccc[nH]2)CC3C)c1 (stereo not shown) [ISO-2-4, N-(3-acrylamidophenyl)-1-(4-fluorobenzyl)-7-methyl-5-(1H-pyrrole-2-carbonyl)-4,5,6,7-tetrahydro-1H-pyrazolo[4,3-c]pyridine-3-carboxamide] | 121 | 49 | > 10000
5 | CC1CN(C(=O)c2ccc[nH]2)Cc2c(C(=O)Nc3cccc(NC(=O)CCl)c3)nn(Cc3ccc(F)cc3)c21 (stereo not shown) [ISO-2-5, N-(3-(2-chloroacetamido)phenyl)-1-(4-fluorobenzyl)-7-methyl-5-(1H-pyrrole-2-carbonyl)-4,5,6,7-tetrahydro-1H-pyrazolo [4,3-c]pyridine-3-carboxamide] | 2 | 3 | > 10000
6 | C=CC(=O)N1CCCC(NC(=O)c2nn(Cc3ccc(F)cc3)c3c2CN(C(=O)c2ccc[nH]2)CC3C)C1 (stereo not shown) [ISO-2-6, N-(1-acryloylpiperidin-3-yl)-1-(4-fluorobenzyl)-7-methyl-5-(1H-pyrrole-2-carbonyl)-4,5,6,7-tetrahydro-1H-pyrazolo[4,3-c]pyridine-3-carboxamide] | > 10000 | > 10000 | > 10000
7 | C=CC(=O)Nc1cc(F)ccc1Cn1nc(C(=O)Nc2cccc([C@H](C)O)c2)c2c1C(C)CN(C(=O)c1ccc[nH]1)C2 (stereo partly drawn) [ISO-2-7, 1-(2-acrylamido-4-fluorobenzyl)-N-(3-((S)-1-hydroxyethyl)phenyl)-7-methyl-5-(1H-pyrrole-2-carbonyl)-4,5,6,7-tetrahydro-1H-pyrazolo[4,3-c]pyridine-3-carboxamide] | 247 | 153 | > 10000
8 | C=CC(=O)NCc1cc(F)ccc1Cn1nc(C(=O)Nc2cccc([C@H](C)O)c2)c2c1C(C)CN(C(=O)c1ccc[nH]1)C2 (stereo partly drawn) [ISO-2-8, 1-(2-(acrylamidomethyl)-4-fluorobenzyl)-N-(3-((S)-1-hydroxyethyl)phenyl)-7-methyl-5-(1H-pyrrole-2-carbonyl)-4,5,6,7-tetrahydro-1H-pyrazolo[4,3-c]pyridine-3-carboxamide] | 154 | 52 | > 10000
9 | C=CC(=O)N1CCC(NC(=O)c2nn(Cc3ccc(F)cc3)c3c2CN(C(=O)c2ccc[nH]2)CC3C)C1 (stereo not shown) [ISO-2-9, N-(1-acryloylpyrrolidin-3-yl)-1-(4-fluorobenzyl)-7-methyl-5-(1H-pyrrole-2-carbonyl)-4,5,6,7-tetrahydro-1H-pyrazolo[4,3-c]pyridine-3-carboxamide] | > 10000 | > 10000 | > 10000
10 | C=CC(=O)N1CC(NC(=O)c2nn(Cc3ccc(F)cc3)c3c2CN(C(=O)c2ccc[nH]2)CC3C)C1 (stereo not shown) [ISO-2-10, N-(1-acryloylazetidin-3-yl)-1-(4-fluorobenzyl)-7-methyl-5-(1H-pyrrole-2-carbonyl)-4,5,6,7-tetrahydro-1H-pyrazolo[4,3-c]pyridine-3-carboxamide] | 9500 | > 10000 | > 10000
11 | C=CC(=O)Nc1ccc(NC(=O)c2nn(Cc3ccc(F)cc3)c3c2CN(C(=O)c2ccc[nH]2)CC3C)s1 (stereo not shown) [ISO-2-19, N-(5-acrylamidothiophen-2-yl)-1-(4-fluorobenzyl)-7-methyl-5-(1H-pyrrole-2-carbonyl)-4,5,6,7-tetrahydro-1H-pyrazolo[4,3-c]pyridine-3-carboxamide] | 35 | 5 | 4780
12 | C=CC(=O)Nc1ccc(NC(=O)c2nn(Cc3ccc(F)cc3)c3c2CN(C(=O)c2ccc[nH]2)C[C@@H]3C)cc1 [ISO-2-25-S] | 7720 | 1360 | 
13 | C=CC(=O)Nc1cc(NC(=O)c2nn(Cc3ccc(F)cc3)c3c2CN(C(=O)c2ccc[nH]2)CC3C)ccc1Cl (stereo not shown) [ISO-2-29, N-(3-acrylamido-4-chlorophenyl)-1-(4-fluorobenzyl)-7-methyl-5-(1H-pyrrole-2-carbonyl)-4,5,6,7-tetrahydro-1H-pyrazolo [4,3-c]pyridine-3-carboxamide] | 61 | 14 | 
14 | C=CC(=O)Nc1cc(NC(=O)c2nn(Cc3ccc(F)cc3)c3c2CN(C(=O)c2ccc[nH]2)CC3C)ccc1OC (stereo not shown) [ISO-2-30, N-(3-acrylamido-4-methoxyphenyl)-1-(4-fluorobenzyl)-7-methyl-5-(1H-pyrrole-2-carbonyl)-4,5,6,7-tetrahydro-1H-pyrazolo [4,3-c]pyridine-3-carboxamide] | 8 | 1 | 
15 | C=CC(=O)Nc1cc(NC(=O)c2nn(Cc3ccc(F)cc3)c3c2CN(C(=O)c2ccc[nH]2)C[C@@H]3C)ccc1OC [ISO-2-30-S] | 1180 | 839 | 
16 | C=CC(=O)N1CCc2ccc(NC(=O)c3nn(Cc4ccc(F)cc4)c4c3CN(C(=O)c3ccc[nH]3)CC4C)cc21 (stereo not shown) [ISO-2-31, N-(1-acryloylindolin-6-yl)-1-(4-fluorobenzyl)-7-methyl-5-(1H-pyrrole-2-carbonyl)-4,5,6,7-tetrahydro-1H-pyrazolo[4,3-c]pyridine-3-carboxamide] | 27 | 5 | 
17 | C=CC(=O)Nc1cccc(CNC(=O)c2nn(Cc3ccc(F)cc3)c3c2CN(C(=O)c2ccc[nH]2)CC3C)c1 (stereo not shown) [ISO-2-32, N-(3-acrylamidobenzyl)-1-(4-fluorobenzyl)-7-methyl-5-(1H-pyrrole-2-carbonyl)-4,5,6,7-tetrahydro-1H-pyrazolo[4,3-c]pyridine-3-carboxamide] | 7500 | 3150 | 
18 | Cc1cccc(NC(=O)c2nn(Cc3ccc(F)c(NC(=O)/C=C/CCl)c3)c3c2CN(C(=O)c2ccc[nH]2)CC3C)c1 (stereo not shown) [ISO-2-36, (E)-1-(3-(4-chlorobut-2-enamido)-4-fluorobenzyl)-7-methyl-5-(1H-pyrrole-2-carbonyl)-N-(m-tolyl)-4,5,6,7-tetrahydro-1H-pyrazolo[4,3-c]pyridine-3-carboxamide] | 8 | 0.5 | 
19 | C=CC(=O)Nc1ccc2c(Cn3nc(C(=O)Nc4cccc(C)c4)c4c3C(C)CN(C(=O)c3ccc[nH]3)C4)cccc2c1 (stereo not shown) [ISO-2-38, 1-((6-acrylamidonaphthalen-1-yl)methyl)-7-methyl-5-(1H-pyrrole-2-carbonyl)-N-(m-tolyl)-4,5,6,7-tetrahydro-1H-pyrazolo[4,3-c]pyridine-3-carboxamide] | 4 | 0.5 | 
